MIC, solubility in water and pKa data for 12 molecules are collected here from publication PMC8745124, “The Potential Antimicrobial Action of Human Mucin 7 15-Mer Peptide and Its Metal Complexes” (International Journal of Molecular Sciences, 2021).

Values after ≈ are worked out from the molar mass of the structure shown. Where two headings read alike, the source gives them in different places. No end group written: not given here.

The subject of data set [1] is S. epidermidis KCTC 1917. The data set is classed as cell-based, Staphylococcus epidermidis. The conditions noted are these: KCTC 1917, 24 h. How it is done:
(§1) The antimicrobial properties of three peptides (L1, L2, L3) and metal(II) complexes (molar ratio, 1:1) were tested on human pathogenic strains. E. coli ATCC 25922, E. faecalis ATCC 29212, P. aeruginosa ATCC 15422, and S. epidermidis KCTC 1917 were grown at 37 °C in Luria Bertani Broth (LB; 10 g/L bacto-tryptone, 5 g/L bacto-yeast extract, 10 g/L NaCl). The C. albicans […] was grown in a 6.7 g/L yeast nitrogen base (YNB) broth (Difco Laboratories) containing 2% D-glucose at 37 °C. The minimum inhibitory concentration (MIC) values of the peptides and their metal(II) complexes were determined using the microdilution broth method in 96-well microplates (Sarstedt, Nümbrecht, Germany). The serial dilutions of tested compounds (0–500 µM) were dissolved in LB medium for bacteria and YNB medium for C. albicans. The inoculum (2.5 µL) of each strain (10^8 CFU mL^−1) was placed into each well containing 200 µL of serial dilutions of the tested peptides and their metal(II) complexes. […] Bacteria and C. albicans incubated with metal ions were used as additional controls. After 24 h of incubation at 37 °C, the optical density at 600 nm of each well was measured using a multifunctional microplate reader (Synergy™ H1, BioTek, Winooski, VT, USA).

Data set [2] has as its system E. coli ATCC 25922. The data set is classed as cell-based, Escherichia coli. As to conditions: ATCC 25922, 24 h. How it is done: as §1
Data set [3] deals with P. aeruginosa ATCC 15422. The data set is classed as cell-based, Pseudomonas aeruginosa. As to conditions: ATCC 15422, 24 h. The procedure: as §1
Data set [4] concerns C. albicans ATCC 10231. The data set is classed as cell-based, Candida albicans. The conditions noted are these: ATCC 10231, 24 h. How it is done: as §1
Data set [5] concerns E. faecalis ATCC 29212. The data set is classed as cell-based, Enterococcus faecalis. The conditions noted are these: ATCC 29212, 24 h. The procedure: as §1
Data set [6] is classed as physicochemical. An excerpt: Distribution profiles for Cu(II) and Zn(II) complexes calculated based on titrations are depicted in Figure 1. Complexes of L1 with Zn(II) were precipitated in the experimental concentration used for potentiometry above pH 9, while for L2 and L3 complexes were insoluble above pH 7. For copper complexes, precipitation was not observed at any experimental pH value.
Based on the experimental curves, it was possible to determine stability constants only for some complex species (ZnH3L and ZnHL for L2 and ZnH4L, ZnH3L and ZnHL for L3 ligand). […] Based on the competition diagram, Figure 3A, it could be assumed that all His residues are involved in the coordination of the Zn(II) ion directly or indirectly through the steric effect. The L3 ligand has the best affinity to metal ions already in an acidic environment and throughout the range of the tested pH. […] It could be concluded that although L1 and L2 have the same number of histidyl residues, their mutual position affects the effectiveness of metal ion binding at a given pH value. Above pH 6.5, L1 binds the Zn(II) with higher stability than that observed for L2.
Zinc complexes were not soluble above pH 9 and 7 for L1 and L2, L3, respectively. It was surprising that upon contact with the […] n-octanol phase, Zn(II)/L1 complexes formed in the water were precipitated, which prevented further measurement of the partition coefficient logPo/w. This undoubtedly proves the hydrophilic nature of Zn (II)/L1 complexes. In the case of zinc complexes of the remaining ligands, no precipitate was observed, so experimental values of logPo/w were determined. In comparison to free ligands, the lipophilicity of Cu(II) complexes is lower for all studies’ systems. For L2 and L3, and their Zn(II) complex forms, we observed a slight difference in the partition coefficient concerning the ligands themselves, a slight decrease in lipophilicity in the case of Zn(II)/L2 complexes, and an increase in the case of Zn(II)/L3. […]

The test system of data set [7] is E. coli. As to conditions: Table S7, cited from earlier work. How it is done: (§2) page 13: Table S5. Experimentally measured molar extinction coefficients (ε) and absorbance maxima (λmax) for L1, L2 and L3 which concentration was determined by UV-Vis. Solvent HEPES buffer (50 mM. I = 0.16 M).Path length = 1 cm.T = 25°C. λmax [nm] ε [M-1cm-1] L1 275.5 1076 L2 280 1062 L3 275.5 1077 Table S6. Antimicrobial activity of the […] (L1), […] (L2) and […] (L3) and their metal(II) complexes against pathogenic microorganisms. Values are the average of three independent experiments performed in three wells. Ligands/ E. faecalis S. epidermidis E. coli ...

Data set [8] concerns P. aeruginosa. The conditions noted are these: Table S7, cited from earlier work. How it is done: as §2
For data set [9], the system named is E. faecalis. As to conditions: Table S7, cited from earlier work. From the text:
(§3) Values are the average of three independent experiments performed in three wells.

Data set [10] deals with C. albicans. Also noted: method as in 2 sources, one per row (each row's own in cited_ref): ref [33] (a number printed in a supplementary file, which may have a reference list of its own: not looked up in the article's list) ||| ref [36] (a number printed in a supplementary file, which may have a reference list of its own: not looked up in the article's list). The conditions noted are these: Table S7; ref [36]; cited from earlier work.
Source text: as §3

For data set [11], the target named is Tyr9 (position 9, …). The data set is described as follows: potentiometry. As to conditions: 25 ± 0.2 °C (298 K), I = 0.1 M (KCl), none (HCl/KOH titration under Ar).
Data set [12] addresses Nterm1 (position 1, -----KSHFEL). In words: potentiometry. The conditions noted are these: 25 ± 0.2 °C (298 K); I = 0.1 M (KCl); none (HCl/KOH titration under Ar); free peptide, no metal; ligand 1.0 × 10^-3 M (the Table 2 caption says 0.0005 M).
Data set [13] concerns the target His3 (position 3, ---KSHFELPH). The data set is described as follows: potentiometry. As to conditions: 25 ± 0.2 °C (298 K); I = 0.1 M (KCl); none (HCl/KOH titration under Ar); free peptide, no metal; ligand 1.0 × 10^-3 M (the Table 2 caption says 0.0005 M).
Data set [14] concerns the target Lys1 (position 1, -----KSHFEL). In words: potentiometry. The conditions noted are these: 25 ± 0.2 °C (298 K), I = 0.1 M (KCl), none (HCl/KOH titration under Ar).
In data set [15] the target is His8 (position 8, …). The data set is described as follows: potentiometry. The conditions noted are these: 25 ± 0.2 °C (298 K); I = 0.1 M (KCl); none (HCl/KOH titration under Ar); free peptide, no metal; ligand 1.0 × 10^-3 M (the Table 2 caption says 0.0005 M).
In data set [16] the target is His14 (position 14, YGLLAHQ----). In words: potentiometry. As to conditions: 25 ± 0.2 °C (298 K), I = 0.1 M (KCl), none (HCl/KOH titration under Ar).
In data set [17] the target is Lys1 (position 1, -----KSAFEL). The data set is described as follows: potentiometry. The conditions noted are these: 25 ± 0.2 °C (298 K), I = 0.1 M (KCl), none (HCl/KOH titration under Ar).
The target in data set [18] is Nterm1 (position 1, -----KSAFEL). The data set is described as follows: potentiometry. As to conditions: 25 ± 0.2 °C (298 K); I = 0.1 M (KCl); none (HCl/KOH titration under Ar); free peptide, no metal; ligand 1.0 × 10^-3 M (the Table 2 caption says 0.0005 M).
In data set [19] the target is His8 (position 8, …). In words: potentiometry. The conditions noted are these: 25 ± 0.2 °C (298 K); I = 0.1 M (KCl); none (HCl/KOH titration under Ar); free peptide, no metal; ligand 1.0 × 10^-3 M (the Table 2 caption says 0.0005 M). This is another data set of the same source.
For data set [20], the target named is His3 (position 3, ---KSHFELPA). In words: potentiometry. As to conditions: 25 ± 0.2 °C (298 K); I = 0.1 M (KCl); none (HCl/KOH titration under Ar); free peptide, no metal; ligand 1.0 × 10^-3 M (the Table 2 caption says 0.0005 M).
Data set [21] addresses Tyr9 (position 9, …). In words: potentiometry. The conditions noted are these: 25 ± 0.2 °C (298 K), I = 0.1 M (KCl), none (HCl/KOH titration under Ar). The source holds these as a separate data set.
The mark [22] stands for this setting: Cu(II)-bound mononuclear complex (4N coordination), metal:ligand 1:1.1 and 1:2.
[23] abbreviates: free peptide, no metal, ligand 1.0 × 10^-3 M (the Table 2 caption says 0.0005 M).

Consider KSHFELPHYGLLAHQ [L3], for which the MIC is 210 ± 2.6 µM in data set [1]; over 888 µg/mL in data set [2]; 313 ± 2.5 µM in data set [3]; over 888 µg/mL in data set [4]; 241 ± 1.6 µM in data set [5]. Also, the solubility in water entry in data set [6] is recorded as “soluble in water”.
Regarding KSAFELPHYGLLAHQ [L1], the MIC in data set [1] came out at 132 ± 1.6 µM; in data set [2], 412 ± 2.4 µM; in [3], 285 ± 2.6 µM; in [4], 436 ± 2.4 µM; in data set [5] it was 145 ± 3.1 µM. The solubility in water entry in data set [6] is reported as “soluble in water”.
As for Polymyxin, the MIC in data set [7] (ref [34]) is 1 µg/mL; in [8] (ref [34]), 1 µg/mL; in [9] (ref [34]), over 16 µg/mL.
Take KSHFELPAYGLLAHQ [L2]: the MIC in [1] stood at 147 ± 1.6 µM; in data set [2] it was 416 ± 0.5 µM; in data set [3] it was 302 ± 2.8 µM; in [4] it was 469 ± 1.4 µM; in [5], 163 ± 2.2 µM. In data set [6], the solubility in water result was “soluble in water”.
Turning to `O=C(O)c1cn(C2CC2)c2cc(N3CCNCC3)c(F)cc2c1=O` [Ciprofloxacin], the minimal inhibitory concentration (MIC) in [7] (ref [33]) was 0.08 µg/mL (≈ 0.241 µM); in [8] (ref [33]), 0.16 µg/mL (≈ 0.483 µM).
In the case of Clavanin D, the MIC in data set [7] (ref [36]) is 64 µg/mL; in data set [10], 16 µg/mL; in data set [9] (ref [36]), 128 µg/mL.
Clavanin B: the MIC is 256 µg/mL in [7] (ref [36]), 64 µg/mL in [10] and 256 µg/mL in data set [9] (ref [36]).
On to Gramicidin S, for which the values for the MIC in data set [7] (ref [35]), in [8] (ref [35]) and in data set [9] (ref [35]) were 50 µg/mL, 50 µg/mL and 6.25 µg/mL, respectively.
For `CNC(C)C1CCC(N)C(OC2C(N)CC(N)C(OC3OCC(C)(O)C(NC)C3O)C2O)O1` (stereo not shown) [Gentamicin], the results for the MIC in data set [7] (ref [33]), in data set [8] (ref [33]) and in data set [9] (ref [33]) were at least 2.50 µg/mL, 0.31 µg/mL (≈ 0.649 µM) and at least 2.50 µg/mL, respectively.
Take KSHFELPHYGLLAHQ [MUC7 15-mer peptide L3 (KSHFELPHYGLLAHQ, mother peptide) (Homo sapiens (synthetic peptide))]: the pKa in data set [11] (setting [22]) was 9.62; in data set [11] (setting [23]), 9.35; in data set [12], 7.36; in [13], 5.40; in data set [14] (setting [22]), 9.85; in [14] (setting [23]), 10.01. The results for the pKa in [15] and in data set [16] (setting [23]) were 6.34 and 6.75, respectively.
For KSAFELPHYGLLAHQ [MUC7 15-mer peptide analogue L1 (KSAFELPHYGLLAHQ) (Homo sapiens (synthetic peptide); H3A)], the pKa in [11] (setting [22]) was 9.61; in data set [11] (setting [23]), 9.44; in [17] (setting [22]), 10.86; in data set [17] (setting [23]), 9.92; in [18] it was 7.59; in data set [19], 5.98. Besides, the pKa in data set [16] (setting [23]) stood at 6.62.
In the case of KSHFELPAYGLLAHQ [MUC7 15-mer peptide analogue L2 (KSHFELPAYGLLAHQ) (Homo sapiens (synthetic peptide); H8A)], the pKa was 7.42 in [12]; 5.62 in [20]; 10.06 in [14] (setting [22]); 10.50 in [14] (setting [23]); 9.43 in data set [21] (setting [22]); 9.58 in [21] (setting [23]). Also, the results for the pKa in data set [16] (setting [22]) and in [16] (setting [23]) were 6.46 and 6.72, respectively.

One may read the MIC as the lowest concentration found to suppress growth. As a reminder, the pKa is the negative logarithm of the acid dissociation constant. A low value points to a group that gives up its proton readily.
